Test [1] has as its system PfUDN. In words: ssDNA-dependent ATPase assay of PfUDN. In kind it is biochemical, Plasmodium falciparum. As to conditions: for effect on ssDNA dependent ATPase activity of PfUDN: compound 20 μM, PfUDN 100 nM, reaction mixture (DNA) preincubated 15 min with compound, Figure 1A; for IC50: inhibitor 0.2-5.0 μM (ciprofloxacin 0.5-30 μM), read-out: IC50, inhibition of ssDNA-dependent ATPase activity of PfUDN. The procedure:
Standard protocol of ATPase assay was followed as described in the previous report. The hydrolysis of ATP catalyzed by PfUDN was assayed by measuring the formation of Pi from [γ-^32P] ATP. The reaction mixture of 10 μl contained [γ-^32P] ATP (specific activity 222 TBq.mmol^-1) and cold ATP (1 mM), ATPase buffer (20 mM Tris-HCl, pH 8.0, 8 mM DTT, 1.0 mM MgCl2, 20 mM KCl and 16 μg/ml BSA), purified PfUDN and 50 ng or 100 ng of M13 mp19 ssDNA. The reaction mixtures were incubated at 37°C for 60 min. This was followed by thin layer chromatography (TLC), and the quantitation was done using Alpha Imager-EP/Image-J software ( http://rsbweb.nih.gov/ij/). In order to study the effect of various compounds on ssDNA-dependent ATPase activity, different compounds were added into the reaction mixture prior to the addition of the PfUDN. In another set of experiment, PfUDN was pre-incubated (15 min) with these compounds in order to obtain the insight of inhibitory mechanism. All the experiments were performed at least two times and quantification data was used to calculate the standard deviation using Microsoft Excel 2010 and mean value was used to prepare the graph.

For a further test, the system named is malaria parasite. The following applies: cited from earlier work.
For test [2], the system named is PfUDN. In words: DNA helicase (unwinding) assay of PfUDN. In kind it is biochemical, Plasmodium falciparum. The following applies: for effect on DNA unwinding (helicase) activity of PfUDN: compound 20 μM, partial duplex substrate, Figure 3; for effect on helicase activity of PfUDN at lower concentration: upto 5 μM concentration tested (data not shown); for IC50: inhibitor 0.5-5.0 μM, unit printed in text b27, not in table or picture labels, read-out: IC50, inhibition of helicase (DNA unwinding) activity of PfUDN. The procedure: The specially designed partial duplex substrate consisted of a ^32P-labelled 47-mer DNA oligodeoxynucleotide annealed to M13mp19 phage ssDNA. This oligodeoxynucleotide of the nucleotide sequence 5'- (T)15[…](T)15-3' contains 15 base-pairs of non-complementary region (T)15 at both the 5’ and 3’ ends. Oligodeoxynucleotide was labeled at 5′-end with T4 polynucleotide kinase (PNK) (5U) (New England Biolabs) and 1.85 MBq of [γ-^32P] ATP (specific activity 222 TBq/mmol) at 37°C for one hour and then annealed using standard annealing buffer (20 mM Tris-HCl, pH 7.5, 10 mM MgCl2, 100 mM NaCl, 1 mM DTT) with 0.5 μg of single-stranded circular M13mp19 (+) phage DNA by heating at 95°C for 1 min and then transferring immediately to 65°C for 2 min and then slow cooling to room temperature. Using gel filtration through a Sepharose 4B column (Pharmacia, Sweden) the non-hybridized oligodeoxynucleotide was removed. The reaction volume of 10 μl containing the ^32P-labeled helicase substrate (1000 cpm/10 μl) in appropriate buffer (20 mMTris-HCl, pH 8.0, 8 mM DTT, 1.0 mM MgCl2, 20 mMKCl and 16 μg/ml BSA) and PfUDN was incubated at 37°C for 60 min. The substrate and products were separated by electrophoresis on a nondenaturing 12% PAGE and the gel was exposed to hyper film for autoradiography or scanned on phosphoimager. In order to study the effect of DNA-interacting compounds on helicase activity, different compounds were added to the helicase reaction mixture prior to the addition of the PfUDN helicase. All the experiments were performed in duplicate and quantitation of both the substrate and unwound DNA bands was done using AlphaImager-EP/Image-J software ( http://rsbweb.nih.gov/ij/). Quantification data was used to calculate the standard deviation using Microsoft Excel 2010 and mean value was used to prepare the graph.

Test [3] has as its system PfDH60. The following applies: Table 2; no unit and no reference given; read-out: inhibitory potential for helicase activity, PfDH60; cited from earlier work.
The subject of test [4] is PfH45. As to conditions: comparison column of Table 1; no unit and no reference given; read-out: inhibitory potential for ATPase activity, PfH45; cited from earlier work.
In test [5] the test system is PfH45. The following applies: Table 2; no unit and no reference given; read-out: inhibitory potential for helicase activity, PfH45; cited from earlier work.
Test [6] deals with PfD66/PfDDX19. As to conditions: Table 2; no unit and no reference given; read-out: inhibitory potential for helicase activity, PfD66/PfDDX19; cited from earlier work.
In test [7] the test system is PfD66/PfDDX19. As to conditions: comparison column of Table 1; no unit and no reference given; read-out: inhibitory potential for ATPase activity, PfD66/PfDDX19; cited from earlier work.
In test [8] the test system is PfDH60. The following applies: comparison column of Table 1; no unit and no reference given; read-out: inhibitory potential for ATPase activity, PfDH60; cited from earlier work.
Setting [9] is: unit printed in text b20, not in table or picture labels.

These results are taken from paper PMC4234510, “Plasmodium falciparum UvrD activities are downregulated by DNA-interacting compounds and its dsRNA inhibits malaria parasite growth” (BMC Biochemistry, 2014).

Like-named read-outs stand apart in the source and are kept apart here. Starred links: 1 amine or outer side, 2 acyl side, 3 side chain; linkers in the order of their positions; H or OH if unused. Positions of bridges follow the written chain, without caps; N, C: chain ends. Non-standard residues stand in square brackets, D forms with d. Residues, ends and D or L forms follow the SMILES beside them. Chains are numbered I, II in the order given. Actinocin(9to1) = Cc1c2oc3c(C)ccc(C(=O)[*:1])c3nc-2c(C(=O)[*:2])c(N)c1=O; NMeV = CN[C@H](C(=O)O)C(C)C; Sar = CNCC(=O)O

On to `O=C(O)c1cn(C2CC2)c2cc(N3CCNCC3)c(F)cc2c1=O` [Ciprofloxacin, ciprofloxacin], for which, in the test with PfUDN [1], the “effect on ssDNA dependent ATPase activity of PfUDN” value is listed as “weakly inhibit”. In addition, the IC50 at PfUDN [1] (unit printed in text b20, not in table or picture labels, listed as ciprofloxacin) was around 10000 nM. For the same compound, the IC50 at PfUDN [1] (setting [9]) was found to be 9900 nM. In the test on malaria parasite, the “inhibition of malaria parasite growth” value is reported as “found effective”. Also, in the test on PfUDN [2], the “effect on DNA unwinding (helicase) activity of PfUDN” value (shortened to “effect on DNA unwinding”) is listed as “inhibit the DNA unwinding activity of PfUDN effectively” and the “effect on helicase activity of PfUDN at lower concentration” value is listed as “failed to show appreciable inhibition”.

As for `N=C(N)c1ccc(-c2cc3ccc(C(=N)N)cc3[nH]2)cc1` [DAPI], the “effect on ssDNA dependent ATPase activity of PfUDN” value with PfUDN [1] is reported as “inhibit”.

Consider `COc1cccc2c1C(=O)c1c(O)c3c(c(O)c1C2=O)C[C@@](O)(C(C)=O)C[C@@H]3O[C@H]1C[C@H](N)[C@H](O)[C@H](C)O1` [Daunorubicin, daunorubicin], for which the “effect on ssDNA dependent ATPase activity of PfUDN” value in the test on PfUDN [1] is reported as “top four inhibitors”. The IC50 on PfUDN [1] is around 3000 nM; in the test on PfDH60 [3] it was 300 nM; with PfH45 [4] it was 5000 nM; in the test with PfH45 [5], 1500 nM; on PfUDN [2] (listed as daunorubicin), around 3000 nM; at PfUDN [2], 3000 nM. Besides, in the test with PfUDN [2], the “effect on DNA unwinding” value is on record as “inhibit the DNA unwinding activity of PfUDN effectively”.

With `CC[n+]1c(-c2ccccc2)c2cc(N)ccc2c2ccc(N)cc21` [Ethidium bromide, ethidium bromide], the IC50 in the test on PfD66/PfDDX19 [6] is 1000 nM; with PfD66/PfDDX19 [7], 1500 nM; with PfDH60 [8], 2500 nM; in the test on PfDH60 [3] it was 1500 nM; with PfH45 [4], 1500 nM; in the test with PfH45 [5], 1000 nM. In addition, the IC50 at PfUDN [2] amounted to 4800 nM. Besides, in the test with PfUDN [1], the “effect on ssDNA dependent ATPase activity of PfUDN” value was “top four inhibitors”. In addition, the “effect on DNA unwinding” value with PfUDN [2] is “inhibit the DNA unwinding activity of PfUDN effectively”.

For `Cn1cc(NC(=O)c2cc(NC(=O)CN=C(N)N)cn2C)cc1C(=O)NCCC(=N)N` [Netropsin, netropsin], the IC50 in the test with PfD66/PfDDX19 [6] was 500 nM; with PfD66/PfDDX19 [7], 1000 nM; at PfUDN [1] (setting [9]) it was 3100 nM; with PfDH60 [3], 1200 nM; with PfH45 [4], 1500 nM; in the test on PfH45 [5] it was 500 nM. Moreover, on PfUDN [2], the IC50 was found to be 4700 nM. For the same compound, the “effect on ssDNA dependent ATPase activity of PfUDN” value in the test on PfUDN [1] was “top four inhibitors”. For the same compound, the “effect on DNA unwinding” value with PfUDN [2] was “inhibit the DNA unwinding activity of PfUDN effectively”.

Regarding `COC(=O)[C@@H]1c2cc3c(c(O)c2[C@@H](O[C@@H]2O[C@@H](C)[C@H](OC)[C@@](C)(OC)[C@H]2OC)C[C@]1(C)O)C(=O)c1c(O)cc2c(c1C3=O)O[C@@H]1O[C@@]2(C)[C@H](O)[C@@H](N(C)C)[C@@H]1O` [Nogalamycin, nogalamycin], the IC50 was 5000 nM in the test on PfD66/PfDDX19 [6]; 3300 nM on PfUDN [1] (setting [9]); 500 nM in the test on PfDH60 [8]; 2000 nM in the test with PfDH60 [3]; 800 nM in the test on PfH45 [4]; 500 nM in the test with PfH45 [5]. Further, the IC50 at PfUDN [2] stood at 3500 nM. In addition, the “effect on ssDNA dependent ATPase activity of PfUDN” value in the test with PfUDN [1] is “top four inhibitors”. The “effect on DNA unwinding” value with PfUDN [2] is reported as “inhibit the DNA unwinding activity of PfUDN effectively”.

In the case of `Cc1c2oc3c(C)ccc(C(=O)N[C@@H]4C(=O)N[C@H](C(C)C)C(=O)N5CCC[C@H]5C(=O)N(C)CC(=O)N(C)[C@@H](C(C)C)C(=O)O[C@@H]4C)c3nc-2c(C(=O)N[C@@H]2C(=O)N[C@H](C(C)C)C(=O)N3CCC[C@H]3C(=O)N(C)CC(=O)N(C)[C@@H](C(C)C)C(=O)O[C@@H]2C)c(N)c1=O` [actinomycin] (I: T[dV]P[Sar][NMeV] / II: T[dV]P[Sar][NMeV]; ester I:1-I:C, II:1-II:C; linker I:N-II:N via Actinocin(9to1)), the “effect on ssDNA dependent ATPase activity of PfUDN” value in the test on PfUDN [1] is “not able to considerably inhibit”. Moreover, in the test with PfUDN [2], the “effect on DNA unwinding” value is reported as “not able to considerably inhibit”.

As for `CC[C@@]1(O)C(=O)OCc2c1cc1n(c2=O)Cc2cc3ccccc3nc2-1` [camptothecin], the “effect on ssDNA dependent ATPase activity of PfUDN” value in the test with PfUDN [1] was “not able to considerably inhibit”. Besides, the “effect on DNA unwinding” value in the test with PfUDN [2] was “not able to considerably inhibit”.

Consider `N.N.[Cl][Pt][Cl]` [cisplatin], for which, in the test with PfUDN [1], the “effect on ssDNA dependent ATPase activity of PfUDN” value is reported as “not able to considerably inhibit”. Also, the “effect on DNA unwinding” value in the test on PfUDN [2] is reported as “not able to considerably inhibit”.

`O=P1(N(CCCl)CCCl)NCCCO1` (centres unmarked) [cyclophosphamide]: the “effect on ssDNA dependent ATPase activity of PfUDN” value with PfUDN [1] was “not able to considerably inhibit”. The “effect on DNA unwinding” value with PfUDN [2] is on record as “not able to considerably inhibit”.

For the compound `COc1cc([C@@H]2c3cc4c(cc3[C@@H](O[C@@H]3O[C@@H]5CO[C@@H](C)O[C@H]5[C@H](O)[C@H]3O)[C@H]3COC(=O)[C@H]23)OCO4)cc(OC)c1O` [etoposide], in the test with PfUDN [1], the “effect on ssDNA dependent ATPase activity of PfUDN” value is listed as “not able to considerably inhibit”. Besides, in the test on PfUDN [2], the “effect on DNA unwinding” value is “blocks the helicase activity appreciably” and the “effect on helicase activity of PfUDN at lower concentration” value was “failed to show appreciable inhibition”.

As for `O=c1c(-c2ccc(O)cc2)coc2cc(O)cc(O)c12` [genistein], in the test on PfUDN [1], the “effect on ssDNA dependent ATPase activity of PfUDN” value is given as “not able to considerably inhibit”. For the same compound, the “effect on DNA unwinding” value with PfUDN [2] is on record as “not able to considerably inhibit”.

As for `O=c1c(O)c(-c2ccc(O)cc2O)oc2cc(O)cc(O)c12` [morin], in the test on PfUDN [1], the “effect on ssDNA dependent ATPase activity of PfUDN” value is recorded as “weakly inhibit”. In addition, the “effect on DNA unwinding” value in the test with PfUDN [2] was “not able to considerably inhibit”.

Take `CO[C@@H]1[C@@H](OC(N)=O)[C@@H](O)[C@H](Oc2ccc3c(O)c(NC(=O)c4ccc(O)c(CC=C(C)C)c4)c(=O)oc3c2C)OC1(C)C` [novobiocin]: the “effect on ssDNA dependent ATPase activity of PfUDN” value with PfUDN [1] is “not able to considerably inhibit”. Further, in the test with PfUDN [2], the “effect on DNA unwinding” value was “not able to considerably inhibit”.
